Experimental data published in PubChem BioAssay (NCI).
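Growth conditions: 96-well plates. Treatment: test compound, 48 hours, 5 concentrations. Analysis: linear interpolation between bracketing concentrations; unreached endpoints set to highest concentration. GI50: concentration for 50% inhibition of growth. TGI denotes the concentration required for complete inhibition of growth.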

What was measured:
Experiment in all cases: growth of human tumour cells (NCI), 48 h
PC-3 prostate = test system: PC-3 prostate
NCI-H522 lung = test system: NCI-H522 lung
CAKI-1 renal = test system: CAKI-1 renal
HOP-92 NSCLC = test system: HOP-92 NSCLC
SK-MEL-28 melanoma = test system: SK-MEL-28 melanoma
SK-MEL-2 melanoma = test system: SK-MEL-2 melanoma
SK-MEL-5 melanoma = test system: SK-MEL-5 melanoma
HT29 colon = test system: HT29 colon
HCC-2998 colon = test system: HCC-2998 colon
OVCAR-4 ovarian = test system: OVCAR-4 ovarian
SW-620 colon = test system: SW-620 colon
NCI/ADR-RES ovarian = test system: NCI/ADR-RES ovarian
HL-60(TB) leukemia = test system: HL-60(TB) leukemia
MOLT-4 leukemia = test system: MOLT-4 leukemia
KM12 colon = test system: KM12 colon
MALME-3M melanoma = test system: MALME-3M melanoma
BT-549 breast = test system: BT-549 breast
MDA-MB-435 = test system: MDA-MB-435
NCI-H226 lung = test system: NCI-H226 lung
COLO 205 colon = test system: COLO 205 colon
HCT-15 colon = test system: HCT-15 colon
RPMI-8226 leukemia = test system: RPMI-8226 leukemia
SNB-19 CNS = test system: SNB-19 CNS
HS 578T breast = test system: HS 578T breast
SF-295 CNS = test system: SF-295 CNS
786-0 renal = test system: 786-0 renal
UACC-257 melanoma = test system: UACC-257 melanoma
A549 NSCLC = test system: A549 NSCLC
MCF7 breast = test system: MCF7 breast
UO-31 renal = test system: UO-31 renal
MDA-MB-231 breast = test system: MDA-MB-231 breast
EKVX NSCLC = test system: EKVX NSCLC
SN12C renal = test system: SN12C renal
SF-539 CNS = test system: SF-539 CNS
HOP-62 NSCLC = test system: HOP-62 NSCLC
IGROV1 ovarian = test system: IGROV1 ovarian
SK-OV-3 ovarian = test system: SK-OV-3 ovarian
DU-145 prostate = test system: DU-145 prostate
RXF 393 renal = test system: RXF 393 renal
SNB-75 CNS = test system: SNB-75 CNS
CCRF-CEM leukemia = test system: CCRF-CEM leukemia
SF-268 CNS = test system: SF-268 CNS
NCI-H23 lung = test system: NCI-H23 lung
TK-10 renal = test system: TK-10 renal
NCI-H460 lung = test system: NCI-H460 lung
ACHN renal = test system: ACHN renal
A498 renal = test system: A498 renal
UACC-62 melanoma = test system: UACC-62 melanoma
OVCAR-8 ovarian = test system: OVCAR-8 ovarian
T-47D breast = test system: T-47D breast
K-562 leukemia = test system: K-562 leukemia
SR leukemia = test system: SR leukemia
OVCAR-3 ovarian = test system: OVCAR-3 ovarian
HCT-116 colon = test system: HCT-116 colon
M14 melanoma = test system: M14 melanoma
U251 CNS = test system: U251 CNS
OVCAR-5 ovarian = test system: OVCAR-5 ovarian
LOX IMVI melanoma = test system: LOX IMVI melanoma

SMILES: CC/C(=C\c1ccc(N(C)C)cc1)c1ccncc1
- GI50 (PC-3 prostate): 10.3 µM
- TGI (PC-3 prostate): > 100 µM
- GI50 (NCI-H522 lung): 5.05 µM
- TGI (NCI-H522 lung): > 100 µM
- GI50 (CAKI-1 renal): 3.42 µM
- TGI (CAKI-1 renal): > 100 µM
- GI50 (HOP-92 NSCLC): 1890 nM
- TGI (HOP-92 NSCLC): 9.94 µM
- GI50 (SK-MEL-28 melanoma): > 100 µM
- TGI (SK-MEL-28 melanoma): > 100 µM
- GI50 (SK-MEL-2 melanoma): 8.51 µM
- TGI (SK-MEL-2 melanoma): > 100 µM
- GI50 (SK-MEL-5 melanoma): 3.43 µM
- TGI (SK-MEL-5 melanoma): 16.4 µM
- GI50 (HT29 colon): 4.43 µM
- TGI (HT29 colon): > 100 µM
- GI50 (HCC-2998 colon): 6.58 µM
- TGI (HCC-2998 colon): > 100 µM
- GI50 (OVCAR-4 ovarian): 8.67 µM
- TGI (OVCAR-4 ovarian): > 100 µM
- GI50 (SW-620 colon): 4.04 µM
- TGI (SW-620 colon): > 100 µM
- GI50 (NCI/ADR-RES ovarian): 2380 nM
- TGI (NCI/ADR-RES ovarian): 6.09 µM
- GI50 (HL-60(TB) leukemia): 4.06 µM
- TGI (HL-60(TB) leukemia): 29.3 µM
- GI50 (MOLT-4 leukemia): 5.09 µM
- TGI (MOLT-4 leukemia): > 100 µM
- GI50 (KM12 colon): 3.84 µM
- TGI (KM12 colon): > 100 µM
- GI50 (MALME-3M melanoma): 4.52 µM
- TGI (MALME-3M melanoma): > 100 µM
- GI50 (BT-549 breast): 4.38 µM
- TGI (BT-549 breast): 23.5 µM
- GI50 (MDA-MB-435): 1680 nM
- TGI (MDA-MB-435): 7.51 µM
- GI50 (NCI-H226 lung): 14.1 µM
- TGI (NCI-H226 lung): > 100 µM
- GI50 (COLO 205 colon): 3.94 µM
- TGI (COLO 205 colon): 21.1 µM
- GI50 (HCT-15 colon): 2820 nM
- TGI (HCT-15 colon): > 100 µM
- GI50 (RPMI-8226 leukemia): 5.13 µM
- TGI (RPMI-8226 leukemia): 55.2 µM
- GI50 (SNB-19 CNS): 9.09 µM
- TGI (SNB-19 CNS): > 100 µM
- GI50 (HS 578T breast): 4.13 µM
- TGI (HS 578T breast): 67.2 µM
- GI50 (SF-295 CNS): 3.44 µM
- TGI (SF-295 CNS): 21.1 µM
- GI50 (786-0 renal): 6.31 µM
- TGI (786-0 renal): 46.4 µM
- GI50 (UACC-257 melanoma): 11.6 µM
- TGI (UACC-257 melanoma): > 100 µM
- GI50 (A549 NSCLC): 5.5 µM
- TGI (A549 NSCLC): > 100 µM
- GI50 (MCF7 breast): 9.31 µM
- TGI (MCF7 breast): > 100 µM
- GI50 (UO-31 renal): 6.57 µM
- TGI (UO-31 renal): > 100 µM
- GI50 (MDA-MB-231 breast): 6.53 µM
- TGI (MDA-MB-231 breast): 80.1 µM
- GI50 (EKVX NSCLC): 3.29 µM
- TGI (EKVX NSCLC): > 100 µM
- GI50 (SN12C renal): 5.96 µM
- TGI (SN12C renal): > 100 µM
- GI50 (SF-539 CNS): 7.35 µM
- TGI (SF-539 CNS): 74.6 µM
- GI50 (HOP-62 NSCLC): 4.33 µM
- TGI (HOP-62 NSCLC): 33.7 µM
- GI50 (IGROV1 ovarian): 5.47 µM
- TGI (IGROV1 ovarian): > 100 µM
- GI50 (SK-OV-3 ovarian): 7.87 µM
- TGI (SK-OV-3 ovarian): 53.3 µM
- GI50 (DU-145 prostate): 9.47 µM
- TGI (DU-145 prostate): > 100 µM
- GI50 (RXF 393 renal): 4.25 µM
- TGI (RXF 393 renal): 20.8 µM
- GI50 (SNB-75 CNS): 6.88 µM
- TGI (SNB-75 CNS): 47.7 µM
- GI50 (CCRF-CEM leukemia): 8.13 µM
- TGI (CCRF-CEM leukemia): > 100 µM
- GI50 (SF-268 CNS): 11.2 µM
- TGI (SF-268 CNS): > 100 µM
- GI50 (NCI-H23 lung): 4.96 µM
- TGI (NCI-H23 lung): > 100 µM
- GI50 (TK-10 renal): 12.9 µM
- TGI (TK-10 renal): > 100 µM
- GI50 (NCI-H460 lung): 3.79 µM
- TGI (NCI-H460 lung): > 100 µM
- GI50 (ACHN renal): 5.87 µM
- TGI (ACHN renal): > 100 µM
- GI50 (A498 renal): 4.35 µM
- TGI (A498 renal): > 100 µM
- GI50 (UACC-62 melanoma): 5.04 µM
- TGI (UACC-62 melanoma): > 100 µM
- GI50 (OVCAR-8 ovarian): 6.16 µM
- TGI (OVCAR-8 ovarian): > 100 µM
- GI50 (T-47D breast): 4.16 µM
- TGI (T-47D breast): > 100 µM
- GI50 (K-562 leukemia): 3.78 µM
- TGI (K-562 leukemia): > 100 µM
- GI50 (SR leukemia): 3.24 µM
- TGI (SR leukemia): 30.1 µM
- GI50 (OVCAR-3 ovarian): 4.13 µM
- TGI (OVCAR-3 ovarian): 29.7 µM
- GI50 (HCT-116 colon): 3.89 µM
- TGI (HCT-116 colon): > 100 µM
- GI50 (M14 melanoma): 4.37 µM
- TGI (M14 melanoma): 54.6 µM
- GI50 (U251 CNS): 4.82 µM
- TGI (U251 CNS): 48.7 µM
- GI50 (OVCAR-5 ovarian): 33 µM
- TGI (OVCAR-5 ovarian): > 100 µM
- GI50 (LOX IMVI melanoma): 4.05 µM
- TGI (LOX IMVI melanoma): > 100 µM
